# Columns and labels:
# Human TLR7/8 = experiment: Human PBMC cell-based assay, TLR7/8 stimulus (RNA-Ig), cytokine ELISA; settings: primary human PBMC assay, TLR7/8 potency; ligand not given; read-out: Human PBMCs IC50
# Experimental: Human PBMC Cell-Based Assay. Human peripheral blood mononuclear cells (PBMC) were isolated from freshly-drawn heparinized (10 USP units/ml, Hospira, Lakeforest, Ill.) healthy donor whole blood by density gradient (Histopaque® 1077, Sigma, Inc., St. Louis, Mo.). Briefly, 25 ml blood was diluted with 15 ml PBS (without Ca^2+, Mg^2+) in a 50 ml conical tube, and 12 ml Histopaque was underlaid using a spinal needle. Tubes were centrifuged for 45 minutes at 1200 rpm (350×g), and PBMC were collected from the buffy coat. Cells were then washed twice in PBS, and red blood cells were lysed by suspension in 5 ml ammonium chloride solution (1× Red Blood Cell Lysis Buffer, eBioscience) for 5 minutes at room temperature. After a final wash in PBS, PBMC were resuspended at a final concentration of 2×10^6/ml in RPMI-1640 media with L-glutamine (Invitrogen) and supplemented with 25 mM HEPES (Mediatech, Inc, Manassas Va.), 10% fetal bovine serum (HyClone, Logan, Utah), and Penicillin-Streptomycin-Glutamine (Mediatech) and plated at 100 ul/well (2×10^5 cells/well) in tissue culture treated 96-well plates (Falcon).
# Antagonist compounds solubilized and serial diluted in 100% DMSO were added in triplicate to cells to yield a final concentration of 0.1% DMSO (v/v). Hydroxychloroquine (Acros Organics) solubilized and serial diluted in PBS was added in triplicate to cells. PBMC were incubated with antagonist compounds or HCQ for 30 minutes at 37° C., 5% CO2 before adding various TLR agonist reagents in 100 ul complete media per well as follows (final concentrations indicated): R848 (Resiquimod; GLSynthesis, Worcester, Mass.) at 1 uM for TLR7 and TLR8, LPS (Sigma) at 10 ng/ml for TLR4, and CpG-2216 (InvivoGen) at 5 ug/ml for TLR9. To prepare a TLR7/8 agonist that mimics RNA-containing auto-antibody immune complexes in lupus patients, a 26-mer RNA with a sequence derived from human U1 snRNA stem loop IV [(sequence: […]-[…] (SEQ ID NO: 2) with phosphorothioate backbone] was synthesized (Dharmacon, Inc., Lafayette, Colo.), which has been shown previously to be a potent TLR7 and TLR8 agonist. This RNA molecule was diluted to 2.5 μM in serum-free RPMI, and mouse anti-human single stranded DNA monoclonal antibody (MAB3034, Millipore, Inc., Billerica, Mass.), which also cross-reacts with RNA, was added at a 1:25 dilution or at 1 ug/ml. The resulting “RNA-Ig” stimulus was incubated at room temperature for 15-30 minutes before adding to cells. PBMC were incubated with the various TLR agonists for 20 hours at 37° C., 5% CO2. Cell culture supernatants were collected, and levels of various human cytokines were assessed as indicated by standard ELISA procedure according to the manufacturer's recommended protocol (BD Biosciences, Inc., San Diego, Calif.). In a subsequent assay (Table 6) the ability of ER-899742 to block stimulation of normal PBMC by various TLR7/8 ligands, but not DNA-mediated activation of TLR9, was examined. In this assay cells were plated at 1×10^5 cells/well in 100 ul in 96-well plates.
# mouse TLR7 = target: T1, mouse TLR7 (Mus musculus, UniProt P58681); experiment: Short-term in vivo (STIV) assay: oral dosing, R848 s.c., plasma IL-6; design: female BALB/c mice (Jackson Labs, Bar Harbor, Me.) were dosed by oral gavage; tissue Jackson Labs; host or cells: living female BALB/c mice; plasma IL-6 after s.c. R848
# T1 sequence (P58681 27-1050): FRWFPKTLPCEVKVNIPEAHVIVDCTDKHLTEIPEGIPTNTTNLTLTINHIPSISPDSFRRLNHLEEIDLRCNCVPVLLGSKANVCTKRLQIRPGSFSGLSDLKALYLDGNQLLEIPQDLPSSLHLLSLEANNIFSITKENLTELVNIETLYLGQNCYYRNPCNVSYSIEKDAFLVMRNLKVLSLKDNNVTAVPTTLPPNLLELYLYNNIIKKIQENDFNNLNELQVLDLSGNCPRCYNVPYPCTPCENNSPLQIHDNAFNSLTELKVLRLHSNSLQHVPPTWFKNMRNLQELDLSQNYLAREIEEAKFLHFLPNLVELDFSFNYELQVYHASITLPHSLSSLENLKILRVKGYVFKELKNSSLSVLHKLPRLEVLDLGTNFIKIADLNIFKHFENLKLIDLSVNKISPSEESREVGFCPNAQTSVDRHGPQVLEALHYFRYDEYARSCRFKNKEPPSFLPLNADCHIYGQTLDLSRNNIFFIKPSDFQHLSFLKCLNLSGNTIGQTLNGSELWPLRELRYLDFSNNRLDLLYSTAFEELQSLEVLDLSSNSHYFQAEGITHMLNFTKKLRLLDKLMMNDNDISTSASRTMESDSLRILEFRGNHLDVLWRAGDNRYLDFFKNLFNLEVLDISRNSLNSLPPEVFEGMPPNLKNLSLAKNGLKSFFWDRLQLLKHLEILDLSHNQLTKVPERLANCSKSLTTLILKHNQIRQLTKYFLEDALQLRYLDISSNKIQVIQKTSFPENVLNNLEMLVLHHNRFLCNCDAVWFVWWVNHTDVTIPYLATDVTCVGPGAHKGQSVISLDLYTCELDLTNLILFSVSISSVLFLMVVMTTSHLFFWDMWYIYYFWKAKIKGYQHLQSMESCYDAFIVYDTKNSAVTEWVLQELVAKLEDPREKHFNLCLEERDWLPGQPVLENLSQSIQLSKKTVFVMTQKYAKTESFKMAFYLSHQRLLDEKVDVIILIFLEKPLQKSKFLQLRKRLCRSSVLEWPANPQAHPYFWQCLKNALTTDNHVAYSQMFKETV
# Experimental: Figure Legend: Female BALB/c mice were dosed by oral gavage with Vehicle alone (0.5% aqueous methyl-cellulose) or compound formulated in Vehicle at 33 mg/kg, 100 mg/kg or 300 mg/kg. […] (FIG. 1A).
# Short-term in vivo (STIV) assay: To assess compound potency in vivo against mouse TLR7, a short-term in vivo (STIV) assay was utilized. Briefly, mice were orally dosed with compounds and at various time points afterwards were injected subcutaneously with agonist R848 to stimulate TLR7. The plasma IL-6 level following R848 stimulation was then measured by ELISA to assess compound potency and duration-of-action.
# Short-term in vivo (STIV) assay. Six to eight week old female BALB/c mice (Jackson Labs, Bar Harbor, Me.) were dosed by oral gavage in 200 ul volume with antagonist compounds formulated in 0.5% aqueous methyl-cellulose (Sigma, St. Louis, Mo.). At various time points afterwards, mice were injected subcutaneously (s.c.) in 100 ul volume with 15 ug R848 (Resiquimod; GLSynthesis, Worcester, Mass.) to stimulate TLR7.
structure (smiles),measurement,setting,value
CC1CN(c2ccc(C#N)c3ncccc23)CC(CNc2ncccn2)O1 (stereo not drawn) [ER-886787],IC50,Human TLR7/8,76 nM
C[C@@H]1CN(c2ccc(C#N)c3ncccc23)C[C@H](CNc2ccccn2)O1 [ER-886788],% Suppression vs. Vehicle,"mouse TLR7; 3 h, 33 mg/kg",0%
same,% Suppression vs. Vehicle,"mouse TLR7; 3 h, 100 mg/kg",0%
same,% Suppression vs. Vehicle,"mouse TLR7; 3 h, 300 mg/kg",24%
same,% Suppression vs. Vehicle,"mouse TLR7; 6 h, 33 mg/kg",0%
same,% Suppression vs. Vehicle,"mouse TLR7; 6 h, 100 mg/kg",27%
same,% Suppression vs. Vehicle,"mouse TLR7; 6 h, 300 mg/kg",26%
same,% Suppression vs. Vehicle,"mouse TLR7; 19 h, 33 mg/kg",0%
same,% Suppression vs. Vehicle,"mouse TLR7; 19 h, 100 mg/kg",17%
same,% Suppression vs. Vehicle,"mouse TLR7; 19 h, 300 mg/kg",2%
Cc1ccnc(NCC2CN(c3ccc(C#N)c4ncccc34)CC(C)O2)c1 (stereo not drawn) [ER-886853],IC50,Human TLR7/8,4 nM
COc1ccc(NC[C@H]2CN(c3ccc(C#N)c4ncccc34)C[C@@H](C)O2)nc1 [ER-886855],IC50,Human TLR7/8,34 nM
CC1CN(c2ccc(C#N)c3ncccc23)CC(CN2CCCC2C)O1 (stereo not drawn) [ER-886856],IC50,Human TLR7/8,111 nM
COc1cccc(NC[C@H]2CN(c3ccc(C#N)c4ncccc34)C[C@@H](C)O2)n1 [ER-886859],IC50,Human TLR7/8,107 nM
C[C@@H]1CN(c2ccc(C#N)c3ncccc23)C[C@H](CNc2ccnn2-c2ccccc2)O1 [ER-886860],IC50,Human TLR7/8,240 nM
CC1CN(c2ccc(C#N)c3ncccc23)CC(CN2CCCC2CO)O1 (stereo not drawn) [ER-886866],IC50,Human TLR7/8,50 nM
C[C@@H]1CN(c2ccc(C#N)c3ncccc23)C[C@H](CN2CC[C@@H](O)C2)O1 [ER-886867],IC50,Human TLR7/8,34 nM
COc1cccnc1NC[C@H]1CN(c2ccc(C#N)c3ncccc23)C[C@@H](C)O1 [ER-886948],% Suppression vs. Vehicle,"mouse TLR7; 3 h, 33 mg/kg",46%
same,% Suppression vs. Vehicle,"mouse TLR7; 3 h, 100 mg/kg",89%
same,% Suppression vs. Vehicle,"mouse TLR7; 3 h, 300 mg/kg",100%
same,% Suppression vs. Vehicle,"mouse TLR7; 6 h, 33 mg/kg",35%
same,% Suppression vs. Vehicle,"mouse TLR7; 6 h, 100 mg/kg",44%
same,% Suppression vs. Vehicle,"mouse TLR7; 6 h, 300 mg/kg",81%
same,% Suppression vs. Vehicle,"mouse TLR7; 19 h, 33 mg/kg",0%
same,% Suppression vs. Vehicle,"mouse TLR7; 19 h, 100 mg/kg",5%
same,% Suppression vs. Vehicle,"mouse TLR7; 19 h, 300 mg/kg",49%
C[C@@H]1CN(c2ccc(C#N)c3ncccc23)C[C@H](CN2CCC(C(N)=O)CC2)O1 [ER-888320],% Suppression vs. Vehicle,"mouse TLR7; 3 h, 100 mg/kg",100%
same,% Suppression vs. Vehicle,"mouse TLR7; 6 h, 33 mg/kg",78%
same,% Suppression vs. Vehicle,"mouse TLR7; 6 h, 100 mg/kg",94%
same,% Suppression vs. Vehicle,"mouse TLR7; 13 h, 33 mg/kg",9%
same,% Suppression vs. Vehicle,"mouse TLR7; 13 h, 100 mg/kg",31%
C[C@@H]1CN(c2ccc(C#N)c3ncccc23)C[C@H](CN2CCC(N3CCN(C)CC3)CC2)O1 [ER-890223],% Suppression vs. Vehicle,"mouse TLR7; 3 h, 33 mg/kg",93%
same,% Suppression vs. Vehicle,"mouse TLR7; 3 h, 100 mg/kg",99%
same,% Suppression vs. Vehicle,"mouse TLR7; 6 h, 33 mg/kg",82%
same,% Suppression vs. Vehicle,"mouse TLR7; 6 h, 100 mg/kg",99%
same,% Suppression vs. Vehicle,"mouse TLR7; 19 h, 100 mg/kg",88%
CC(C)C(=O)NC1CN(C[C@H]2CN(c3ccc(C#N)c4ncccc34)C[C@@H](C)O2)C1 [ER-894206],% Suppression vs. Vehicle,"mouse TLR7; 3 h, 33 mg/kg",96%
same,% Suppression vs. Vehicle,"mouse TLR7; 6 h, 33 mg/kg",85%
same,% Suppression vs. Vehicle,"mouse TLR7; 6 h, 100 mg/kg",98%
same,% Suppression vs. Vehicle,"mouse TLR7; 13 h, 33 mg/kg",42%
same,% Suppression vs. Vehicle,"mouse TLR7; 13 h, 100 mg/kg",77%
C[C@@H]1CN(c2ccc(C#N)c3ncccc23)C[C@H](C(=O)NC2(C)CCNCC2)O1 [ER-899718],% Suppression vs. Vehicle,"mouse TLR7; 6 h, 100 mg/kg",74%
same,% Suppression vs. Vehicle,"mouse TLR7; 13 h, 100 mg/kg",51%
C[C@@H]1CN(c2ccc(C#N)c3ncccc23)C[C@H](C(=O)NC2(C)CCN(C)CC2)O1 [ER-899835],% Suppression vs. Vehicle,"mouse TLR7; 6 h, 100 mg/kg",99%
same,% Suppression vs. Vehicle,"mouse TLR7; 13 h, 100 mg/kg",79%
